Results taken from patent US20230398228A1, “ERIBULIN-BASED ANTIBODY-DRUG CONJUGATES AND METHODS OF USE” (EISAI R&D MANAGEMENT CO., LTD., priority 2016, published 2023).
Values joined by “and” are separate entries in the source; they are usually repeats but may differ in a detail not shown here. Identical values can stand only once.

Tests used:
[1] = tested on: Endo-12961 endometrial cancer patient-derived xenograft; test: Endometrial cancer PDx model Endo-12961; settings: for anti-tumor activity, in words: single i.v. dose
Experimental: (§2) Tumor fragments were implanted subcutaneously into the left flank of 40 NMRI nu/nu female mice, and tumor volume was monitored. Mice with a tumor volume of 100-160 mm^3 were randomized into one of four groups (Groups A-D, Table 39). […] Each group consisted of 8 animals. The day of randomization was designated as Day 0 of the experiment.
(§3) Tumor growth was evaluated by the measurement of two perpendicular diameters twice weekly, and tumor volume (TV), relative tumor volume (RTV) and treated/control (T/C) values were calculated. Body weight was also evaluated twice weekly as a parameter for toxicity, with the calculation of the body weight per group and body weight changes (BWC) relative to the start of treatment. Animals were sacrificed when the individual tumor volume exceeded 1 cm^3, or at the end of the study.

HL-60 cells = test: Bystander killing assay, Nuclight Red HL-60; assay type: cell-based, human; settings: Homo sapiens; HL-60 cells treated with free eribulin; read-out: EC50, HL-60 (eribulin)
Experimental: The day before study commencement, Nuclight™ Green (NLG) IGROV1 cells were seeded at 5,000 cells/well into 96-well round bottom plates, followed by centrifugation at 1,000 rpm for 3 min at room temperature to ensure formation of a cell pellet. The plate was placed in the vessel of an Incucyte Zoom® (EssenBio science) and incubated at 37° C./5% CO2 overnight. The program was set to collect images of cell growth, and to determine total numbers of nuclear green-stained and nuclear red-stained cells as well as phase-confluency of the cells every two hours. […] 50 μL of cytotoxin solution was added to the NLG-IGROV1 cells and incubated for 30 min. During the incubation period, Nuclight™ Red (NLR) HL-60 (FR^neg) cells were diluted to 2×10^5, 1×10^5 or 5×10^4 cell/mL with fresh media. 50 μL of the NLR-HL60 cell suspension or medium alone was added to the NLG-IGROV1 wells, followed by centrifugation at 1,000 rpm for 3 min at room temperature to ensure re-formation of the cell pellet. The plate was placed back into the vessel of Incucyte Zoom (EssenBio science) and incubated at 37° C./5% CO2 for up to 5 days. Relative cell growth of NLG-IGROV1 was determined by comparison to no ADC or free drug alone added samples using green cell counts. Relative cell growth of HL60 was done similarly, except that red cell count was determined. Determination of IC50 values for both NLG-IGROV1 and NLR-HL-60 was determined using Prism (GraphPad).
In order to assess bystander killing activity, an assay was set up using two labeled cell lines. […] Cytotoxicity was monitored by an Incucyte Zoom® cell imager.

A431 cells = test: Crystal Violet cytotoxicity assay (Example 4), A431 (parental); assay type: cell-based, human; settings: Homo sapiens, A-431, mean of replicate experiments, read-out: Cytotoxicity IC50 (nM), A431 (FR^neg, MSLN^neg)
Experimental: Test reagents were serial diluted 1:3 in 2 mL deep-well dilution plates, starting at 200 nM (10 dilutions total). […] Medium was then discarded. […] Plates were read at 570 nm. Data was analyzed using GraphPad Prism 6. […]
MAL-PEG2-Val-Cit-PAB-eribulin (ER-001159569) was conjugated to eight different anti-human mesothelin antibodies (Table 1). Binding affinities of the parental antibodies were determined by BIAcore analysis, as described above in section 1.6.1. Aggregation levels for all anti-human mesothelin ADCs were determined by SEC-HPLC and the DAR was analyzed using HIC-HPLC. In vitro potency was evaluated using a Crystal Violet cell-based cytotoxicity assay in A3 (A431 stabily transfected with human mesothelin (MSLN), MSLN^hi), OVCAR3 (human ovarian, MSLN^hi), HEC-251 (human endometroid, MSLN^med), H226 (human lung squamous cell mesothelioma, MSLN^lo), and A431 parental (MSLN^neg) cells.

[2] = tested on: human BM-MSCs co-cultured with MKN-74 cells; test: 3D co-culture system (rStomach, zPredicta), MSC differentiation by flow cytometry; assay type: cell-based; settings: 7 days treatment, MORAb-202 10 nM, MORAb-003 10 nM, eribulin […] and 0.2 nM (Table 41)
Experimental: All mesenchymal stem cell (MSC)-containing 3D co-culture experiments were conducted in zPredicta, using organ-specific 3D extracellular matrix systems such as rStomach™. Bone marrow mesenchymal stem cells (BM-MSCs) in rStomach™ were co-cultured with the Nuc Red Light MKN-74 gastric cancer cell line in quadruplicate in 48-well format for 12 days. […] Prior to culture, BM-MSCs were evaluated for target antigen expression and for markers of MSC differentiation (Table 40) by flow cytometry.
Controls included untreated and vehicle-treated (PBS and DMSO) cultures. MSC differentiation was monitored by light microscopy. Once visible differentiation was observed, samples were harvested for staining and flow cytometry analysis.
Bone marrow mesenchymal stem cells (BM-MSCs) in rStomach™ (zPredicta) were co-cultured with the MKN-74 gastric cancer cell line for 12 days. […] Once visible MSC differentiation was observed by light microscopy, samples were harvested for staining and flow cytometry analysis.

BT-474 cells = test: Crystal Violet cytotoxicity assay (Example 4), BT-474; assay type: cell-based, human; settings: Homo sapiens; BT-474 cells; mean of replicate experiments; read-out: Cytotoxicity IC50 (nM), BT-474 (FR^neg, MSLN^neg, her2^hi)
Experimental: (§1) Test reagents were serial diluted 1:3 in 2 mL deep-well dilution plates, starting at 200 nM (10 dilutions total). […] Medium was then discarded. […] Plates were read at 570 nm. Data was analyzed using GraphPad Prism 6.

NCI-N87 cells = test: Crystal Violet cytotoxicity assay (Example 4), NCI-N87; assay type: cell-based, human; settings: Homo sapiens; NCI-N87-Luc cells; mean of replicate experiments; read-out: Cytotoxicity IC50 (nM), NCI-N87-Luc (FR^lo, MSLN^med, her2^hi)
Experimental: as §1

in vivo [3] = settings: female, NMRI nu/nu, mouse, iv
Experimental: as §2, §3

[4] = Maximum tolerated dose of eribulin in CD-1 mice; assay type: in vivo, mouse; settings: for toxicity, in words: q4dx3
Experimental: Naïve CD-1 mice were injected intravenously with 200 μL of eribulin according to the schedule in Table 22. Body weight was measured three times a week including prior to dose on each dosing day and 24 hours following each dose. […] The terminal body weight was measured and recorded. Euthanized mice at the end of the study (and if any mouse euthanized or found dead during the study) were processed for necropsy. Organs were examined for signs of tissue damage.

NCI-H2110 cells = test: Crystal Violet cytotoxicity assay (Example 4), NCI-H2110; assay type: cell-based, human; settings: Homo sapiens, mean of replicate experiments, read-out: Cytotoxicity IC50 (nM), NCI-H2110 (FR^med, MSLN^med)
Experimental: as §1

IGROV1 cells = test: Crystal Violet cytotoxicity assay (Example 4), IGROV1; assay type: cell-based, human; settings: Homo sapiens, IGROV-1, mean of replicate experiments, read-out: Cytotoxicity IC50 (nM), IGROV1 (FR^hi, MSLN^neg)
Experimental: as §1

ZR-75 cells = test: Crystal Violet cytotoxicity assay (Example 4), ZR-75; assay type: cell-based, human; settings: Homo sapiens, ZR75; ZR-75-1 cells; mean of replicate experiments; read-out: Cytotoxicity IC50 (nM), ZR-75-1 (FR^neg, MSLN^neg, her2^med)
Experimental: as §1

NUGC3 cells = test: Crystal Violet cytotoxicity assay (Example 4), NUGC3; assay type: cell-based, human; settings: Homo sapiens, NUGC-3; NUGC3-Luc cells; mean of replicate experiments; read-out: Cytotoxicity IC50 (nM), NUGC3-Luc (FR^neg, MSLN^neg, her2^neg)
Experimental: as §1

in vivo [5] = settings: female, NMRI nu/nu, mouse, iv; remark: listed apart in the source
Experimental: as §2, §3

[6] = tested on: Endo-10590 endometrial cancer patient-derived xenograft; test: Endometrial cancer PDx model Endo-10590; settings: for anti-tumor activity, in words: single i.v. dose
Experimental: as §2, §3

[7] = MORAb-202 5 mg/kg or eribulin 3.2 mg/kg

C=C1C[C@@H]2CC[C@@]34C[C@H]5O[C@H]6[C@@H](O3)[C@H]3O[C@H](CC[C@@H]3O[C@H]6[C@H]5O4)CC(=O)C[C@@H]3[C@@H](OC)[C@@H](C[C@H](O)CN)O[C@H]3C[C@H]3O[C@@H](CC[C@@H]1O2)C[C@@H](C)C3=C [eribulin]
tumor re-growth during the study, in words [1, 7]: began to re-grow | anti-tumor activity, in words [1, 7]: significant anti-tumor activity | anti-tumor activity, in words ([1]; eribulin 0.1 mg/kg): no significant anti-tumor activity | effect on body weight, in words ([1]; first week post-treatment): temporarily affected body weight | EC50 (HL-60 cells): 0.17 nM | IC50 (A431 cells): 0.653 nM | Percentage of live cells, Pericytes ([2]; PBS 14.6%): 25.8% | Percentage of live cells, Adipocytes ([2]; PBS […]): 2.68% | Percentage of live cells, MSCs ([2]; PBS […]): 29.9% | IC50 (BT-474 cells): 0.151 nM | IC50 (NCI-N87 cells): 0.257 nM | MTD (in vivo [3]): 3.2 mg/kg | clinical finding, in words ([4]; 3.2 mg/kg q4dx3, after the second dose): piloerection in all three mice | body weight loss of individual mouse ([4]; 3.2 mg/kg q4dx3, after the third dose): 17% and 8% | toxicity, in words ([4]; 3.2 mg/kg): severe weight loss | toxicity, in words ([4]; doses up to 1.6 mg/kg): no toxicity | body weight loss or clinical findings, in words ([4]; doses up to 1.6 mg/kg, q4dx3, i.v.): No significant body weight loss or clinical findings indicating toxicity | gross organ changes at necropsy, in words ([4]; mouse, in vivo): No gross changes | MTD ([4]; mouse, in vivo, iv, q4dx3, i.v., CD-1 mice): 1.6 mg/kg | IC50 (NCI-H2110 cells): 0.199 nM | IC50 (IGROV1 cells): 0.32 nM | IC50 (ZR-75 cells): 0.236 nM | IC50 (NUGC3 cells): 0.445 nM | MTD (in vivo [5]): 3.2 mg/kg | tumor re-growth during the study, in words [6, 7]: began to re-grow | anti-tumor activity, in words [6, 7]: significant anti-tumor activity | anti-tumor activity, in words ([6]; eribulin 0.1 mg/kg): no significant anti-tumor activity | effect on body weight, in words ([6]; first week post-treatment): temporarily affected body weight
